Measured values as given in ChEMBL document CHEMBL5223106, “Targeting non-alcoholic fatty liver disease: Design, X-ray co-crystal structure and synthesis of 'first-in-kind' inhibitors of serine/threonine kinase25” (Bioorg Med Chem Lett, 2022).
pIC50: −log10 of the molar value. Calls of active or inactive are those of the source. The rule behind the calls is not given here.

Experiments:
[1] = molecular target: T1, Serine/threonine-protein kinase 25 (Homo sapiens, UniProt O00506); test: Inhibition of STK25 (unknown origin) by FRET assay
[2] = molecular target: T1, Serine/threonine-protein kinase 25; test: Inhibition of STK25 (unknown origin)
Target sequence in this assay (O00506 whole entry): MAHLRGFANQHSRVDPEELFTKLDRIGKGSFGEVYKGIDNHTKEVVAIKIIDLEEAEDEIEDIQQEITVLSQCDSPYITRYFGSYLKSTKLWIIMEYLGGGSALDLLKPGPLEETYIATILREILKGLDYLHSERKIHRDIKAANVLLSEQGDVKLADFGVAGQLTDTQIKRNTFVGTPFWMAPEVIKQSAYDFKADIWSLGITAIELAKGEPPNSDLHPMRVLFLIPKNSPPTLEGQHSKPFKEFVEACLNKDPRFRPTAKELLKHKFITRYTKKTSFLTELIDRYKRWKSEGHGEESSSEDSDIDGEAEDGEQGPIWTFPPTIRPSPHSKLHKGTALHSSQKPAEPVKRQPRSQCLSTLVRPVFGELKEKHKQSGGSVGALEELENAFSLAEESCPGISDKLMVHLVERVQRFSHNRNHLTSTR

[3] = Clearance in mouse microsomes; format: ADME, Microsome
[4] = Clearance in human microsomes; format: ADME, Microsome
[5] = molecular target: T1, Serine/threonine-protein kinase 25; test: Inhibition of STK25 (unknown origin) by cellular target engagement assay
Target sequence in this assay (O00506 whole entry): as above

[6] = Permeability of the compound in human Caco-2 cells at 10 uM; format: ADME, cell-based; details: caco-2, 10 µM
[7] = Efflux ratio of permeability across basolateral to apical side over apical to basolateral side in human Caco-2 cells; format: ADME, cell-based
[8] = Plasma protein binding in mouse plasma assessed as free fraction; format: ADME, cell-free
[9] = Cytotoxicity against human HepG2 cells assessed as cell growth inhibition; format: toxicity, cell-based
[10] = Solubility of compound; format: physicochemical

In the case of `CC(C)(C)c1cc(NC(=O)c2nnn3c2CO[C@@H](Cc2ccccc2)C3)n[nH]1`, the inhibition [1] was “inactive”.

For `Cc1ccc(C(=O)Nc2cc(C(C)(C)C)n[nH]2)cc1-n1cc(-c2cncc(N3CCOCC3)c2)nn1`, the pIC50 [2] was 7.92.

Work on `CC(C)(C)c1cc(NC(=O)c2ccc(C(=O)N3CCCC3)cc2)n[nH]1` yielded a pIC50 [1] of 5.29.

Compound `CC(C)(C)c1cc(NC(=O)c2ccc(S(=O)(=O)NC3CCCC3)cc2)n[nH]1` has a pIC50 [1] of 6.06.

`CC(C)(C)c1cc(NC(=O)c2ccc(S(=O)(=O)N3CCCC3)cc2)n[nH]1` showed a CL [3] of 145 mL/min/g, a CL [4] of 75 mL/min/g and a pIC50 [1] of 6.64. For the same compound, the pIC50 [5] was 6.68, the permeability [6] was 100% and the efflux ratio [7] was 1. The fraction unbound [8] was 0.26, the pIC50 [9] was < 4.00 and the solubility [10] was > 100 µM.

With `CC(C)(C)c1cc(NC(=O)c2nnn3c2CO[C@H](Cc2ccccc2)C3)n[nH]1` the inhibition [1] was “inactive”.

Work on `O=C(Nc1c[nH]nc1-c1nc2cc(CN3CCOCC3)ccc2[nH]1)NC1CC1` [AT-9283] yielded a pIC50 [2] of 6.34.

For `CC(C)(C)c1cc(NC(=O)c2nnn3c2CO[C@H](c2ccccc2)C3)n[nH]1`, the inhibition [1] was “inactive”.

Compound `CCCCOc1ccc(C(=O)Nc2cc(C(C)(C)C)[nH]n2)cc1` has a pIC50 [1] of 6.21.

With `CC(C)(C)c1cc(NC(=O)c2nnn3c2CO[C@@H](c2ccccc2)C3)n[nH]1` the inhibition [1] was “inactive”.
